Assay results: patent US11529343B2, “Compositions and methods for identifying and treating dystonia disorders” (DUKE UNIVERSITY, priority 2015, dated 2022)
Peptide text beside a SMILES is read from it. * marks the point of attachment. Cbz = O=C(OCc1ccccc1)*

Tests used:
[1] = tested on: delta-E Torsin1a localization; assay: Delta-E Torsin1a mislocalization assay (% cells with EGFP puncta, high-content imaging); type: cell-based, human; conditions: single concentration: MG132 10 μM, PBA 20 mM
WT Torsin1a localization = assay: Torsin1a localization assay in WT Torsin1a-expressing assay cell line; type: cell-based, human; conditions: for percentage of cells with punctate EGFP-Torsin1a signal, WT cell line: single concentration: MG132 10 μM, PBA 20 mM
Text: To develop an assay capable of detecting conditions that correct a dystonia cellular phenotype, two human cell lines were generated that stably expressed EGFP-tagged human wild-type Torsin 1A, or delta-E Torsin1a, from a single cDNA copy integrated at a defined genomic site (FIG. 1, panel 1).
To limit variation in expression levels associated with random integration or transient expression, single copies of either WT or delta-E human TOR1A cDNAs with N-terminal EGFP fusions were inserted at the FRT site in Flp-In™ T-Rex™ 293 cells (Thermo Fisher Scientific #R780-07) via flippase recombinase-mediated cassette exchange according to the manufacturer's recommended protocols. This system includes an inducible expression feature (TetON) that avoids selective pressure for potential toxic effects of chronic expression of mutant proteins (FIG. 1, panel 1).
Flp-In T-Rex 293 cells inducibly expressing either WT or delta-E Torsin1a were maintained in selective media [DMEM-HG (Thermo Fisher Scientific #11965)+1× GlutaMax (Thermo Fisher Scientific #35050-061)+75 μg/mL hygromycin (Thermo Fisher Scientific #10687-010)+15 μg/mL blasticidin S (Thermo Fisher Scientific #R210-01)+10% tetracycline screened FBS (Hyclone #SH30070.03T)+1% penicillin/streptomycin/amphotericin (Mediatech Inc. #30-004-C)]. The cells were maintained at 37° C./5% CO2. All experiments were performed on cells with fewer than 5 passages. HEK 293T cells (ATCC #CRL-3216) were maintained in HEK-T media [DMEM (Thermo Fisher #11995)+10% FBS (Hyclone #SH30070.03)+1× GlutaMAX+1% penicillin/streptomycin/amphotericin] at 37° C./5% CO2. Human dermal fibroblast lines were maintained in FGM media [MEM (Thermo Fisher #11095-080)+15% FBS (Hyclone #SH30070.03)+1% Non-Essential Amino Acids (Lonza #13-114E)+1% penicillin/streptomycin/amphotericin] at 37° C./5% CO2.
This approach provides control over expression levels, avoiding the wide variation typically seen with random genomic integration or transient expression approaches. […] The mutant phenotype was measured as the percentage of cells with one or more EGFP puncta using automated high-content imaging analysis (see infra).
Development and validation of the high-content image analysis and assay performance under high-throughput screening conditions is presented in FIG. 9. […] Automated exposure times for each plate were determined by setting a target saturation of 25% in channel 1 in wells containing tetracycline-induced delta-E cells. Detected cells were gated according to nuclear area, length-to-width ratio, and perimeter-to-area ratio. […] EGFP fluorescence (Ch2: excitation 488 nm; emission 509 nm) was used for puncta detection. Automated exposure times for each plate were determined by setting a target saturation of 35% in channel 2 in wells containing induced delta-E cells. […]

striatal mGluR5 LTD [2] = assay: Long-term depression in cortico-striatal synapse, brain slices of heterozygous DYT1 knockin mice; type: cell-based; conditions: 20 μM, versus vehicle
Experimental: (§1) To directly test these predictions, whole-cell electrophysiology of striatal projection neurons was performed in acute brain slices to induce long-term depression in the presence of eIF2-alpha pathway-modulating drugs. Acute horizontal brain slices from the progeny of heterozygous ΔE Torsin1a knockin x homozygous Drd1a-tdTomato mice (age P15-21) were prepared largely as described in (Trusel et al., 2015, Cell Rep. 13, 1353-65). LTD was induced as in Trusel et al., 2015, with modifications.
(§2) Heterozygous delGAG Torsin1a knockin mice (courtesy of Dr. W. Dauer, University of Michigan) were crossed with homozygous Drd1a-tdTomato mice (Jackson Labs) and the progeny was used at postnatal day 15-21 for experiments. […]
(§3) Single slices were transferred to a recording chamber and superfused continuously with ACSF containing 50 μM picrotoxin at 32° C. and 3-4 mL/min. […] Evoked excitatory postsynaptic potentials (EPSPs) were recorded in the dorsolateral striatum, while stimulating every 30 seconds with a concentric bipolar electrode (FHC) in cortical layer V (see Trusel et al., Cell Reports, 2015). […] Baseline EPSPs were recorded for at least 10 min or until a stable baseline was reached. Data were acquired by pClamp v10 and analyzed using Clampfit v10.4, Origin v8.0, and GraphPad Prism v6.

striatal mGluR5 LTD [3] = assay: Long-term depression in cortico-striatal synapse, acute brain slices of WT mice; type: cell-based; conditions: pre-incubation 5 nM, 1 hr
Experimental: as §1, §2, §3

O=C(O)CCCc1ccccc1 [PBA, phenylbutyric acid]
percentage of cells with punctate EGFP-Torsin1a signal, delta-E cell line [1]: ameliorated the burden of cells with punctate pathology
percentage of cells with punctate EGFP-Torsin1a signal, WT cell line (WT Torsin1a localization): ameliorated the burden of cells with punctate pathology

CC(C)C[C@@H](C=O)NC(=O)[C@H](CC(C)C)NC(=O)[C@H](CC(C)C)NC(=O)OCc1ccccc1 [MG132] (Cbz-Leu-Leu-Leu-aldehyde)
percentage of cells with punctate EGFP-Torsin1a signal, delta-E cell line [1]: significantly increased
percentage of cells with punctate EGFP-Torsin1a signal, WT cell line (WT Torsin1a localization): significantly increased

O=C(/C=C/c1ccccc1)NC(NC(=S)Nc1ccc(Cl)cc1)C(Cl)(Cl)Cl (centres unmarked) [Sal-003]
effect on LTD in brain slices heterozygous for the DYT1 knockin mutation (delGAG) (striatal mGluR5 LTD [2]): restored long-term depression

O=C(COc1ccc(Cl)cc1)NC1CCC(NC(=O)COc2ccc(Cl)cc2)CC1 (centres unmarked) [ISRIB]
Torsin1a expression levels, in words (WT Torsin1a localization; WT cell line): without effects on Torsin1a expression levels
effect on WT Torsin1a localization (cells with puncta), in words (WT Torsin1a localization; dose response, WT cell line): dose-dependent increase in cells with punctate Torsin1a localization
effect on LTD in WT brain slices (striatal mGluR5 LTD [3]): robustly inhibited LTD
